Reference: ChEMBL document CHEMBL3132769, “Fragment growing to retain or alter the selectivity of anchored kinase hinge-binding fragments” (Medchemcomm, 2014)

Columns and labels:
[1] = target: T1, cGMP-dependent protein kinase 1 (Homo sapiens) (UniProt Q13976); assay: Inhibition of human full length PKG-1a expressed in baculovirus assessed as substrate phosphorylation using fluorescence-labelled peptides as substrate at 0.06 uM after 90 mins by microfluidic peptide phosphorylation assay
T1 sequence (whole entry): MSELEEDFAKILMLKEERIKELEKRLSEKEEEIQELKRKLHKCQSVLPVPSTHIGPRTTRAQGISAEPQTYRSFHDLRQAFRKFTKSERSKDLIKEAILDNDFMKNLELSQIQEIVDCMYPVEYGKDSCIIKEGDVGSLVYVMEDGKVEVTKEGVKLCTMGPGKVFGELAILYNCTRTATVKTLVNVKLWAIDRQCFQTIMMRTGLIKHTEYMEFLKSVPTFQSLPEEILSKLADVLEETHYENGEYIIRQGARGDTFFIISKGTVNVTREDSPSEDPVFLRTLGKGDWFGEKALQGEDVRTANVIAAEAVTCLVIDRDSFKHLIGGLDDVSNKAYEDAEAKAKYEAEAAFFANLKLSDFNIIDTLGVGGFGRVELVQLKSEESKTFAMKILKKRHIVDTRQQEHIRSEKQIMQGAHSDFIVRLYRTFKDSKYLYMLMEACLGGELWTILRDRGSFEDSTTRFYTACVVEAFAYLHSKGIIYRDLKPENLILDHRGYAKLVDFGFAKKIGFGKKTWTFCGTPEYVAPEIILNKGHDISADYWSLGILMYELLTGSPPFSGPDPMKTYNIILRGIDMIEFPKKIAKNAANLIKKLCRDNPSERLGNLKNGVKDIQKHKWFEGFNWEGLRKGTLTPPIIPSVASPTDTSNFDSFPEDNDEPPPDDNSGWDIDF

[2] = target: Tyrosine-protein kinase Fer (Homo sapiens) (UniProt P16591); assay: Inhibition of human FER catalytic domain expressed in baculovirus assessed as substrate phosphorylation using fluorescence-labelled peptides as substrate at 0.06 uM after 90 mins by microfluidic peptide phosphorylation assay
[3] = target: T2, Serine/threonine-protein kinase Sgk2 (Homo sapiens) (UniProt Q9HBY8); assay: Inhibition of human full length SGK2 expressed in baculovirus assessed as substrate phosphorylation using fluorescence-labelled peptides as substrate at 420 uM after 90 mins by microfluidic peptide phosphorylation assay
T2 sequence (whole entry): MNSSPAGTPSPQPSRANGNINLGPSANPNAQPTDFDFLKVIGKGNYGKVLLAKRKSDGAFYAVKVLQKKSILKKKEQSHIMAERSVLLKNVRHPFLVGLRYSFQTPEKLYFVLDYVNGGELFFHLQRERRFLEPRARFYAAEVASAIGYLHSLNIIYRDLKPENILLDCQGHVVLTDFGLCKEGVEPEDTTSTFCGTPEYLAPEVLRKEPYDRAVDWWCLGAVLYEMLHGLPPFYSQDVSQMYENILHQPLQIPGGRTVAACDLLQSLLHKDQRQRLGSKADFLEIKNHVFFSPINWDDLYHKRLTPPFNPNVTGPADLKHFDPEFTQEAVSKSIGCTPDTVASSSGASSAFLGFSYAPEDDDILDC

[4] = target: T3, Aurora kinase A (Homo sapiens) (UniProt O14965); assay: Inhibition of human full length AurA expressed in baculovirus assessed as substrate phosphorylation using fluorescence-labelled peptides as substrate at 420 uM after 90 mins by microfluidic peptide phosphorylation assay
T3 sequence (whole entry): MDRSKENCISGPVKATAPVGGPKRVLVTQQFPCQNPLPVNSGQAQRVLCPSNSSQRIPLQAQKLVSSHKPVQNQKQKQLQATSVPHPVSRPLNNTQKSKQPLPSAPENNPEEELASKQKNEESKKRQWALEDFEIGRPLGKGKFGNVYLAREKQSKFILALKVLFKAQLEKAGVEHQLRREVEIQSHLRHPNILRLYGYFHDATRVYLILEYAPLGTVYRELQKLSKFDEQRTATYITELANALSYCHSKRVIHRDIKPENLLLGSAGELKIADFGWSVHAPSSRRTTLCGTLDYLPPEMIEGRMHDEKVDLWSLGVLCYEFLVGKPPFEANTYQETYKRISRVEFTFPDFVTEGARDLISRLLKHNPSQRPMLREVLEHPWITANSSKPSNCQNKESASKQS

[5] = target: Serine/threonine-protein kinase pim-1 (Homo sapiens) (UniProt P11309); assay: Inhibition of human full length PIM1 expressed in baculovirus assessed as substrate phosphorylation using fluorescence-labelled peptides as substrate at 95 uM after 90 mins by microfluidic peptide phosphorylation assay
[6] = target: T4, Aurora kinase C (Homo sapiens) (UniProt Q9UQB9); assay: Inhibition of human full length AurC expressed in baculovirus assessed as substrate phosphorylation using fluorescence-labelled peptides as substrate at 95 uM after 90 mins by microfluidic peptide phosphorylation assay
T4 sequence (whole entry): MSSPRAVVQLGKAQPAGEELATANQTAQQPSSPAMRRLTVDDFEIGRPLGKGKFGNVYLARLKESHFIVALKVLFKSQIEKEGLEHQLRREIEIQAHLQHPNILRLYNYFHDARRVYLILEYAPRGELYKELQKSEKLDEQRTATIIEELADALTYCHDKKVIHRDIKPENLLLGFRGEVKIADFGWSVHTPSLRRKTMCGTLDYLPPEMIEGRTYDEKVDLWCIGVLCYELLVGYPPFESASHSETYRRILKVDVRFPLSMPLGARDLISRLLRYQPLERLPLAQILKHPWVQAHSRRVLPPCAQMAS

[7] = target: Tyrosine-protein kinase ABL1 (Homo sapiens) (UniProt P00519); assay: Inhibition of human full-length ABL expressed in baculovirus assessed as substrate phosphorylation using fluorescence-labelled peptides as substrate at 9 uM after 90 mins by microfluidic peptide phosphorylation assay
[8] = tested on: Tyrosine-protein kinase ABL1 (Homo sapiens), P00519 [T315I]; assay: Inhibition of human truncated ABL T315I mutant expressed in baculovirus assessed as substrate phosphorylation using fluorescence-labelled peptides as substrate at 9 uM after 90 mins by microfluidic peptide phosphorylation assay
[9] = target: Receptor-type tyrosine-protein kinase FLT3 (Homo sapiens) (UniProt P36888); assay: Inhibition of human FLT3 catalytic domain expressed in baculovirus assessed as substrate phosphorylation using fluorescence-labelled peptides as substrate at 2 uM after 90 mins by microfluidic peptide phosphorylation assay
[10] = species: Homo sapiens; assay: Inhibition of human full length PKA expressed in baculovirus assessed as substrate phosphorylation using fluorescence-labelled peptides as substrate at 2 uM after 90 mins by microfluidic peptide phosphorylation assay
[11] = target: Protein kinase C alpha type (Homo sapiens) (UniProt P17252); assay: Inhibition of human truncated PKC alpha expressed in baculovirus assessed as substrate phosphorylation using fluorescence-labelled peptides as substrate at 8 uM after 90 mins by microfluidic peptide phosphorylation assay
[12] = target: Proto-oncogene tyrosine-protein kinase Src (Homo sapiens) (UniProt P12931); assay: Inhibition of human full length SRC expressed in baculovirus assessed as substrate phosphorylation using fluorescence-labelled peptides as substrate at 8 uM after 90 mins by microfluidic peptide phosphorylation assay
[13] = target: Cyclin-dependent kinase 2 (Homo sapiens) (UniProt P24941); assay: Inhibition of human full length CDK2 expressed in baculovirus assessed as substrate phosphorylation using fluorescence-labelled peptides as substrate at 0.1 uM after 90 mins by microfluidic peptide phosphorylation assay

Chain of Receptor-type tyrosine-protein kinase FLT3 (Homo sapiens) (P36888 whole entry, the tested form may be a part): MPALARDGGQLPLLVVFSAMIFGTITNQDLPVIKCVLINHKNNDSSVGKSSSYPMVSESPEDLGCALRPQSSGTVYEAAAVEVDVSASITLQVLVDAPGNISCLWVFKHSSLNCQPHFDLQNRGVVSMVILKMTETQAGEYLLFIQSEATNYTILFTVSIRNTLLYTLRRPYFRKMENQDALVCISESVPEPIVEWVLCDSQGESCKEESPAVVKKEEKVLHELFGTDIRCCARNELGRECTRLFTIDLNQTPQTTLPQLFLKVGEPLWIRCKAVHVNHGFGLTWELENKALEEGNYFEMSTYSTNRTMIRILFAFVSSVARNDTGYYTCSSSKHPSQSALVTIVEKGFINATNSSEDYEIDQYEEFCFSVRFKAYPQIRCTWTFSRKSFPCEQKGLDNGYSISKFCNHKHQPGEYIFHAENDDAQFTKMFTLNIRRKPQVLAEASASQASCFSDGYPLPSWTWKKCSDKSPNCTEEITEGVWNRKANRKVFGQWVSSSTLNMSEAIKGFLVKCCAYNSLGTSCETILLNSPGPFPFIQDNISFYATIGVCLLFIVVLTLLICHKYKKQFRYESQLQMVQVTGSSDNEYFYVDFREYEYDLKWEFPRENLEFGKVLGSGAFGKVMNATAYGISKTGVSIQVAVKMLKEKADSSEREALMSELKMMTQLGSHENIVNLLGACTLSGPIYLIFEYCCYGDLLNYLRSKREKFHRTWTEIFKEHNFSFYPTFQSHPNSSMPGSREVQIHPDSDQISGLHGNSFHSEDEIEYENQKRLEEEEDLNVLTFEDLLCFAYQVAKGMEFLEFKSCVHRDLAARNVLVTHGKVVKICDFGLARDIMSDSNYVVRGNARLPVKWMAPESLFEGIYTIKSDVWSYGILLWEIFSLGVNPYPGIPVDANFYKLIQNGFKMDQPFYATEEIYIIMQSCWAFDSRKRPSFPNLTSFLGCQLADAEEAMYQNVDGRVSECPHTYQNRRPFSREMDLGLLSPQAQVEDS
Chain of Proto-oncogene tyrosine-protein kinase Src (Homo sapiens) (P12931 2-536 limits assumed): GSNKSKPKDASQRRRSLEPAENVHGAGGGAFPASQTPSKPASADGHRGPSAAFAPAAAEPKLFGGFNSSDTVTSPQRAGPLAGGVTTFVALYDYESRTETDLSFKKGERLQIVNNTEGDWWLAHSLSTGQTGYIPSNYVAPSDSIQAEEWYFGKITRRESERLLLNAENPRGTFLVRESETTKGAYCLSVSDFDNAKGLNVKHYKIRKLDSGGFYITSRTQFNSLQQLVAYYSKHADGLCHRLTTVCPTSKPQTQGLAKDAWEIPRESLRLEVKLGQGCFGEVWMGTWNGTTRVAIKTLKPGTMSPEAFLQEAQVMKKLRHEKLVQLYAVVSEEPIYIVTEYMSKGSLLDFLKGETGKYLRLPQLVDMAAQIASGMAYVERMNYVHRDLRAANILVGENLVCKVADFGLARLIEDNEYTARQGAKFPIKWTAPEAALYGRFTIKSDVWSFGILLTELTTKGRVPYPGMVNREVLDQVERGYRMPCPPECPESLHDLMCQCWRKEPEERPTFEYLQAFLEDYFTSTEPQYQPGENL
Chain of Tyrosine-protein kinase Fer (Homo sapiens) (P16591 whole entry, looked up, the tested form may be a part): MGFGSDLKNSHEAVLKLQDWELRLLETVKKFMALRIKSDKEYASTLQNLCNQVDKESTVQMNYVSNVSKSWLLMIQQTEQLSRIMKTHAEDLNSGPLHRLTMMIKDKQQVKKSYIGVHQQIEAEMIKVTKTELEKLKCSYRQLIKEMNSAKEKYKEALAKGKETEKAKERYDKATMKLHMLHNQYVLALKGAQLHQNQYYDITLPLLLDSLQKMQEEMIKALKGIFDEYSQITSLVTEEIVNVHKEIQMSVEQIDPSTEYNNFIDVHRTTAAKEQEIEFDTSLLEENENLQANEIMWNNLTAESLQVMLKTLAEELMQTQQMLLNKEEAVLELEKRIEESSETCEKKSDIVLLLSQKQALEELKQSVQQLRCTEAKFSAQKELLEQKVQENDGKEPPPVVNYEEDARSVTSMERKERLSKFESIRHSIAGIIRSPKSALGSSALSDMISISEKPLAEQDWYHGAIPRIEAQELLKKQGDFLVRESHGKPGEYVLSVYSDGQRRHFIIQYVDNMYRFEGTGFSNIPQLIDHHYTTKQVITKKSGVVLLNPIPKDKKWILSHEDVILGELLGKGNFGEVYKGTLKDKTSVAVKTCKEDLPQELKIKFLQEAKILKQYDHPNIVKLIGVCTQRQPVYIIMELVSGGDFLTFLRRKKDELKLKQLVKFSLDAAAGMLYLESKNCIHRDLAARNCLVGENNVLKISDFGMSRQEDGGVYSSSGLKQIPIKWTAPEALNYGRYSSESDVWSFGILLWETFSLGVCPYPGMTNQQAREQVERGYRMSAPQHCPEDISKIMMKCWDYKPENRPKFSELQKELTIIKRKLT
Chain of Serine/threonine-protein kinase pim-1 (Homo sapiens) (P11309 whole entry, looked up): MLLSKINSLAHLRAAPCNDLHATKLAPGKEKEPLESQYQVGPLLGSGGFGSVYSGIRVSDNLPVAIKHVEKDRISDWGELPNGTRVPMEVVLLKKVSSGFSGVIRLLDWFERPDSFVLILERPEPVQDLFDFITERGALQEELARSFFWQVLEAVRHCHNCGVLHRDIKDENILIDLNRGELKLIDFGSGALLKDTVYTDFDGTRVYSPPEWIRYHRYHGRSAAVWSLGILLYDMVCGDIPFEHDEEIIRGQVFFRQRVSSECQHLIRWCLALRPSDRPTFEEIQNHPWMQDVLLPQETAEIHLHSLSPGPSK

NC1(Cc2ccc(Cl)cc2)CCN(c2ncnc3[nH]ccc23)CC1
inhibition [1]: 0% | inhibition [2]: 4%

c1nc(N2CCOCC2)c2nc[nH]c2n1
inhibition [3]: 76.5% | inhibition [4]: 96%

NCCc1ccc(-c2ncnc3[nH]cnc23)cc1
inhibition [5]: 42.5% | inhibition [6]: 87.5%

NCC1CN(c2ncnc3[nH]c4cnccc4c23)CCO1 (stereo not drawn)
inhibition [7]: 12% | inhibition [8]: 10%

NC1CCN(c2ncnc3[nH]ccc23)CC1
inhibition [9]: 0% | inhibition [10]: 21%

NCC1CCN(c2ncnc3[nH]ccc23)CC1
inhibition [11]: 56.5% | inhibition [12]: 1.5%

C[C@H](CN(C)C)Oc1nc(Nc2cc3cccc(Cl)c3cn2)cnc1C#N
inhibition [13]: 1.5%
